Patent EP4790049A1, “BIPHENYL TETRAHYDROPYRROLE COMPOUND, PREPARATION METHOD THEREFOR AND USE THEREOF” (Hainan Yinrui Bio-Pharm Co., Ltd., priority 2023, dated 2025)
Structures can show the parent of a compound that is named as a salt.

Target: T1, Human recombinant MAO-A (Homo sapiens, UniProt P21397)
T1 construct: Full-length human recombinant MAO-A and MAO-B proteins were both expressed in Baculovirus infected Sf 9 cells; FLAG (N); host or cells: Baculovirus-infected Sf9 insect cells
T1 sequence (P21397 1-527): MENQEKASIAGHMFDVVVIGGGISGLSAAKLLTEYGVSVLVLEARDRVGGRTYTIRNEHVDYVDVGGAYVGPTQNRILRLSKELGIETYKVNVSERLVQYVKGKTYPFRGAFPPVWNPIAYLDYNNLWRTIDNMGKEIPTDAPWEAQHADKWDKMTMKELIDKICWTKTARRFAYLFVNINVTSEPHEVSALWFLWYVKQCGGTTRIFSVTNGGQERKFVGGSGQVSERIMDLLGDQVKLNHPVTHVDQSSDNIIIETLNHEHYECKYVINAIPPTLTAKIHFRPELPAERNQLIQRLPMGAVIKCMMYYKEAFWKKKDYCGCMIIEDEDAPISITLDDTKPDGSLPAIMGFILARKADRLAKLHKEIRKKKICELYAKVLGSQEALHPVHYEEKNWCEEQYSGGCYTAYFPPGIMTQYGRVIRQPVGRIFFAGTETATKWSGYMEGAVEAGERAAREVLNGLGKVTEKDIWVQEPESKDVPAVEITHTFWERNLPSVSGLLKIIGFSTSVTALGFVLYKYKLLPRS
Assay: Human recombinant MAO-A inhibitory activity assay (Promega MAO-Glo)
Format: biochemical
Details: human recombinant enzyme expressed in Sf 9 cells; substrate tyramine 40 µM; 15 min pre-incubation, 60 min reaction, room temperature; 10 concentrations, duplicate wells
Protocol: (§1) Full-length human recombinant MAO-A and MAO-B proteins were both expressed in Baculovirus infected Sf 9 cells, containing an N-terminal FLAG tag, with a molecular weight of 59.8 kDa. […] A 40 µM substrate was incubated with the MAO protein at room temperature for 1 hour. The product generated by the oxidative deamination reaction between the MAO and the substrate was incubated with a fluorescent luminescent agent for 0.5 hours, and then the activity of the MAO was detected using the Promega MAO-Glo TM detection method.
(§2) Human recombinant monoamine oxidase A/B expressed in Sf 9 cells was used. During the experiment, the recombinant monoamine oxidase A/B was first dissolved in a HEPES buffer (0.8% NaCl, 0.037% KCl, 0.0135% Na2HPO4·2H2O, 0.1% Glucan, 0.5% HEPES, pH 7.0). 10 µL of the monoamine oxidase A/B solution was added to a 384-well plate, followed by the addition of the test compound (final DMSO concentration of 1%) in each well for 10 concentration gradients. […] The plate was incubated at room temperature for 15 minutes. 10 µL of a substrate solution (40 µM, with tyramine and benzylamine as substrates for MAO-A and MAO-B, respectively) was added to each well, followed by incubation at room temperature for 60 minutes. Subsequently, 20 µL of luciferin detection reagent was added to each well, mixed thoroughly, and incubated at room temperature for 20 minutes to generate a stable fluorescent signal. The fluorescent signal was read using a fluorescence microplate reader, and the values were expressed as relative light units (RLU). The experiment was designed with duplicate wells, and the average value was used to calculate the enzyme activity inhibition rate using the following formula: Inh% = (Max-Signal) / (Max-Min)∗100 [formula] • where Max is the value detected at the maximum concentration of the sample, Min is the value detected at the minimum concentration of the sample, and Signal is the value detected at the current concentration of the sample. […] Table 1. Activity Data IC50 (nM)

| SMILES | IC50 [µM] |
| --- | --- |
| NC(=O)[C@H]1CC[C@@H](c2ccc(-c3ccc(C(F)(F)F)cc3)cc2)N1 [Compound 8, hydrochloride] | 9.97 |
| CN(C)C(=O)[C@@H]1CC[C@H](c2ccc(-c3ccc(C(F)(F)F)cc3)cc2)N1 [Compound 28, hydrochloride] | > 10 |
| NC(=O)[C@@H]1CC[C@H](c2cc(F)c(-c3ccc(C(F)(F)F)cc3)c(F)c2)N1 [Compound 22, hydrochloride] | > 10 |
| Cc1cc(-c2ccc(C(F)(F)F)cc2)ccc1[C@H]1CC[C@@H](C(N)=O)N1 [Compound 19, hydrochloride] | > 10 |
| O=C(O)[C@@H]1CC[C@H](c2ccc(-c3ccc(F)cc3)cc2)N1 [Compound 31, hydrochloride] | > 10 |
| COC(=O)[C@@H]1CC[C@H](c2ccc(-c3ccc(F)cc3)cc2)N1 [Compound 32, hydrochloride] | > 10 |
| NC(=O)[C@@H]1CC[C@H](c2ccc(-c3ccc(OC(F)(F)F)cc3)cc2)N1 [Compound 3, hydrochloride] | > 10 |
| NC(=O)[C@@H]1CC[C@H](c2ccc(-c3ccc(F)cc3)cc2)N1 [Compound 2, hydrochloride] | > 10 |
| NC(=O)[C@H]1CC[C@H](c2ccc(-c3ccc(C(F)(F)F)cc3)cc2)N1 [Compound 7, hydrochloride] | > 10 |
| NC(=O)[C@@H]1CC[C@H](c2ccc(-c3ccc(C(F)(F)F)cc3)cc2)N1 [Compound 1, hydrochloride] | > 10 |
| NC(=O)[C@@H]1CC[C@H](c2ccc(-c3cccc(F)c3)cc2)N1 [Compound 5, hydrochloride] | > 10 |
| NC(=O)[C@@H]1CC[C@H](c2ccc(-c3ccccc3C(F)(F)F)cc2)N1 [Compound 9, hydrochloride] | > 10 |
| NC(=O)[C@@H]1CC[C@@H](c2ccc(-c3ccc(C(F)(F)F)cc3)cc2)N1 [Compound 6, hydrochloride] | > 10 |
| NC(=O)[C@@H]1CC[C@H](c2c(F)cc(-c3ccc(C(F)(F)F)cc3)cc2F)N1 [Compound 24, hydrochloride] | > 10 |
| NC(=O)[C@@H]1CC[C@H](c2ccc(-c3ccc(Cl)cc3)cc2)N1 [Compound 10, hydrochloride] | 83.3 |
| NC(=O)[C@@H]1CC[C@H](c2ccc(-c3ccc(C(=O)O)cc3)cc2)N1 [Compound 13, hydrochloride] | > 10 |

| SMILES | IC50 [µM] |
| --- | --- |
| COC(=O)c1ccc(-c2ccc([C@H]3CC[C@@H](C(N)=O)N3)cc2)cc1 [Compound 15, hydrochloride] | > 10 |
| CC1C[C@H](c2ccc(-c3ccc(C(F)(F)F)cc3)cc2)N[C@@H]1C(N)=O (some centres unmarked) [Compound 25, hydrochloride] | > 10 |
| COc1ccc(-c2ccc([C@H]3CC[C@@H](C(N)=O)N3)cc2)cc1 [Compound 18, hydrochloride] | 9.11 |
| NC(=O)[C@@H]1CC[C@H](c2ccc(-c3ccc([N+](=O)[O-])cc3)cc2)N1 [Compound 12, hydrochloride] | 6.32 |
| Cc1ccc(-c2ccc([C@H]3CC[C@@H](C(N)=O)N3)cc2)cc1 [Compound 17, (2S,5R)-5-[4-(4-methylphenyl)phenyl]-1H-pyrrole-2-carboxamide hydrochloride] | 6.33 |
| CN1[C@@H](c2ccc(-c3ccc(C(F)(F)F)cc3)cc2)CC[C@H]1C(N)=O [Compound 26] | > 10 |
| N#Cc1ccc(-c2ccc([C@H]3CC[C@@H](C(N)=O)N3)cc2)cc1 [Compound 11, hydrochloride] | 9.36 |
| CNC(=O)[C@@H]1CC[C@H](c2ccc(-c3ccc(C(F)(F)F)cc3)cc2)N1 [Compound 27, hydrochloride] | > 10 |
| N#Cc1cc(-c2ccc(C(F)(F)F)cc2)ccc1[C@H]1CC[C@@H](C(N)=O)N1 [Compound 21, hydrochloride] | > 10 |
| N#Cc1cc([C@H]2CC[C@@H](C(N)=O)N2)ccc1-c1ccc(C(F)(F)F)cc1 [Compound 23, hydrochloride] | 9.83 |
| NC(=O)[C@@H]1CC[C@H](c2ccc(-c3ccccc3)cc2)N1 [Compound 16, hydrochloride] | > 10 |
| NC(=O)c1ccc(-c2ccc([C@H]3CC[C@@H](C(N)=O)N3)cc2)cc1 [Compound 14, hydrochloride] | > 10 |
| CCN1[C@@H](c2ccc(-c3ccc(C(F)(F)F)cc3)cc2)CC[C@H]1C(N)=O [Compound 30] | > 10 |
| NC(=O)[C@@H]1CC[C@H](c2ccc(-c3cccc(C(F)(F)F)c3)cc2)N1 [Compound 4, hydrochloride] | > 10 |
| COc1cc(-c2ccc(C(F)(F)F)cc2)ccc1[C@H]1CC[C@@H](C(N)=O)N1 [Compound 20, hydrochloride] | > 10 |

Target: T2, Human recombinant MAO-B (Homo sapiens, UniProt P27338)
T2 construct: Full-length human recombinant MAO-A and MAO-B proteins were both expressed in Baculovirus infected Sf 9 cells; FLAG (N); host or cells: Baculovirus-infected Sf9 insect cells
T2 sequence (P27338 1-520): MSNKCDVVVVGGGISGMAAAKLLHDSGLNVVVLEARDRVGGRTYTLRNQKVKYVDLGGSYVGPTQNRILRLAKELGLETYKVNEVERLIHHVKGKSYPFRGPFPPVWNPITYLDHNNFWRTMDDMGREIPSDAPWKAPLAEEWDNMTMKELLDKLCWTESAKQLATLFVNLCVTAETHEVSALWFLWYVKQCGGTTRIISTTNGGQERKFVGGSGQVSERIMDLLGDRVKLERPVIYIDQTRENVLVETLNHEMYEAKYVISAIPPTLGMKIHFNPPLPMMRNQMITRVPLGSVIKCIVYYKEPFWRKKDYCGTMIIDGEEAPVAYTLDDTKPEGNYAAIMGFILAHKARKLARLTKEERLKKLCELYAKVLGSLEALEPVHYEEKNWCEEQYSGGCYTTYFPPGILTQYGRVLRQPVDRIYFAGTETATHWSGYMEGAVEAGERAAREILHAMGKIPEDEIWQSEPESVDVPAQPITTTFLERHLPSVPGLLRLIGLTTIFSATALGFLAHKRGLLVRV
Assay: Human recombinant MAO-B inhibitory activity assay (Promega MAO-Glo)
Format: biochemical
Details: human recombinant enzyme expressed in Sf 9 cells; substrate benzylamine 40 µM; 15 min pre-incubation, 60 min reaction, room temperature; 10 concentrations, duplicate wells
Protocol: as §1, §2

| SMILES | IC50 [µM] |
| --- | --- |
| NC(=O)[C@H]1CC[C@@H](c2ccc(-c3ccc(C(F)(F)F)cc3)cc2)N1 [Compound 8, hydrochloride] | 0.562 |
| CN(C)C(=O)[C@@H]1CC[C@H](c2ccc(-c3ccc(C(F)(F)F)cc3)cc2)N1 [Compound 28, hydrochloride] | 1 |
| NC(=O)[C@@H]1CC[C@H](c2cc(F)c(-c3ccc(C(F)(F)F)cc3)c(F)c2)N1 [Compound 22, hydrochloride] | 0.433 |
| Cc1cc(-c2ccc(C(F)(F)F)cc2)ccc1[C@H]1CC[C@@H](C(N)=O)N1 [Compound 19, hydrochloride] | 0.891 |
| O=C(O)[C@@H]1CC[C@H](c2ccc(-c3ccc(F)cc3)cc2)N1 [Compound 31, hydrochloride] | 0.533 |
| COC(=O)[C@@H]1CC[C@H](c2ccc(-c3ccc(F)cc3)cc2)N1 [Compound 32, hydrochloride] | 1.99 |
| NC(=O)[C@@H]1CC[C@H](c2ccc(-c3ccc(OC(F)(F)F)cc3)cc2)N1 [Compound 3, hydrochloride] | 0.199 |
| NC(=O)[C@@H]1CC[C@H](c2ccc(-c3ccc(F)cc3)cc2)N1 [Compound 2, hydrochloride] | 1.51 |
| NC(=O)[C@H]1CC[C@H](c2ccc(-c3ccc(C(F)(F)F)cc3)cc2)N1 [Compound 7, hydrochloride] | 0.147 |
| NC(=O)[C@@H]1CC[C@H](c2ccc(-c3ccc(C(F)(F)F)cc3)cc2)N1 [Compound 1, hydrochloride] | 0.083 |
| NC(=O)[C@@H]1CC[C@H](c2ccc(-c3cccc(F)c3)cc2)N1 [Compound 5, hydrochloride] | 3.05 |
| NC(=O)[C@@H]1CC[C@H](c2ccc(-c3ccccc3C(F)(F)F)cc2)N1 [Compound 9, hydrochloride] | 0.891 |
| NC(=O)[C@@H]1CC[C@@H](c2ccc(-c3ccc(C(F)(F)F)cc3)cc2)N1 [Compound 6, hydrochloride] | 0.104 |
| NC(=O)[C@@H]1CC[C@H](c2c(F)cc(-c3ccc(C(F)(F)F)cc3)cc2F)N1 [Compound 24, hydrochloride] | 0.773 |
| NC(=O)[C@@H]1CC[C@H](c2ccc(-c3ccc(Cl)cc3)cc2)N1 [Compound 10, hydrochloride] | 0.564 |
| NC(=O)[C@@H]1CC[C@H](c2ccc(-c3ccc(C(=O)O)cc3)cc2)N1 [Compound 13, hydrochloride] | 1.54 |

| SMILES | IC50 [µM] |
| --- | --- |
| COC(=O)c1ccc(-c2ccc([C@H]3CC[C@@H](C(N)=O)N3)cc2)cc1 [Compound 15, hydrochloride] | 0.784 |
| CC1C[C@H](c2ccc(-c3ccc(C(F)(F)F)cc3)cc2)N[C@@H]1C(N)=O (some centres unmarked) [Compound 25, hydrochloride] | 1.51 |
| COc1ccc(-c2ccc([C@H]3CC[C@@H](C(N)=O)N3)cc2)cc1 [Compound 18, hydrochloride] | 3.57 |
| NC(=O)[C@@H]1CC[C@H](c2ccc(-c3ccc([N+](=O)[O-])cc3)cc2)N1 [Compound 12, hydrochloride] | 0.796 |
| Cc1ccc(-c2ccc([C@H]3CC[C@@H](C(N)=O)N3)cc2)cc1 [Compound 17, (2S,5R)-5-[4-(4-methylphenyl)phenyl]-1H-pyrrole-2-carboxamide hydrochloride] | 0.71 |
| CN1[C@@H](c2ccc(-c3ccc(C(F)(F)F)cc3)cc2)CC[C@H]1C(N)=O [Compound 26] | 3.67 |
| N#Cc1ccc(-c2ccc([C@H]3CC[C@@H](C(N)=O)N3)cc2)cc1 [Compound 11, hydrochloride] | 1.34 |
| CNC(=O)[C@@H]1CC[C@H](c2ccc(-c3ccc(C(F)(F)F)cc3)cc2)N1 [Compound 27, hydrochloride] | 7.53 |
| N#Cc1cc(-c2ccc(C(F)(F)F)cc2)ccc1[C@H]1CC[C@@H](C(N)=O)N1 [Compound 21, hydrochloride] | 1.36 |
| N#Cc1cc([C@H]2CC[C@@H](C(N)=O)N2)ccc1-c1ccc(C(F)(F)F)cc1 [Compound 23, hydrochloride] | 2.53 |
| NC(=O)[C@@H]1CC[C@H](c2ccc(-c3ccccc3)cc2)N1 [Compound 16, hydrochloride] | 7.53 |
| NC(=O)c1ccc(-c2ccc([C@H]3CC[C@@H](C(N)=O)N3)cc2)cc1 [Compound 14, hydrochloride] | 0.991 |
| CCN1[C@@H](c2ccc(-c3ccc(C(F)(F)F)cc3)cc2)CC[C@H]1C(N)=O [Compound 30] | 0.562 |
| NC(=O)[C@@H]1CC[C@H](c2ccc(-c3cccc(C(F)(F)F)c3)cc2)N1 [Compound 4, hydrochloride] | 0.477 |
| COc1cc(-c2ccc(C(F)(F)F)cc2)ccc1[C@H]1CC[C@@H](C(N)=O)N1 [Compound 20, hydrochloride] | 0.998 |
